Assay results reported in US20240124417A1, “COMPOUNDS USEFUL AS IMMUNOMODULATORS” (Bristol-Myers Squibb Company, priority 2019, published 2024).

Molecular target: T1, PD-1/PD-L1 (Homo sapiens, UniProt Q9NZQ7)
T1 construct: TVMV protease site linker (C); made in house; host or cells: HEK293T cells
Assay: PD-1/PD-L1 Homogenous Time-Resolved Fluorescence (HTRF) binding assay
Settings: PD-L1-His 10 nM, PD-1-Ig 20 nM
Procedure, shortened: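 Time-resolved FRET read-out using Eu-cryptate anti-Ig (1 nM final) and APC anti-His (20 nM final). Tagged extracellular domains were used in BSA/Tween-20-supplemented dPBS, with compound pre-incubated 15 min with PD-L1-His (10 nM) before PD-1-Ig (20 nM) was added for 15 min. Other human pairs: PD-L2-His 5 nM with PD-1-Ig 20 nM; PD-L1-Ig 10 nM with CD80-His 100 nM.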

T1 sequence (Q9NZQ7 18-239): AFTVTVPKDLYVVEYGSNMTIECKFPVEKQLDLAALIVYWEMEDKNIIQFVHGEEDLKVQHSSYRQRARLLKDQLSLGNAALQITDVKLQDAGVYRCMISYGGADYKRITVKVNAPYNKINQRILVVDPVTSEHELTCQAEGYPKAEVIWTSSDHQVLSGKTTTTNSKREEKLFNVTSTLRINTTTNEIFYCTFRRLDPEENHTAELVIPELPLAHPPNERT

Row | IC50 [nM] | SMILES
1 | 0.6 | Cc1c(COc2cc(OCc3cncc(C#N)c3)c(CN(C)Cc3c[nH]cn3)cc2Cl)cccc1-c1cccc(OCCCN2CC[C@@H](O)C2)c1C [Example 2007, (R)-5-((2-((((1H-imidazol-4-yl)methyl)(methyl)amino)methyl)-4-chloro-5-((3′-(3-(3-hydroxypyrrolidin-1-yl)propoxy)-2,2′-dimethyl-[1,1′-biphenyl]-3-yl)methoxy)phenoxy)methyl)nicotinonitrile]
2 | 3.4 | Cc1c(COc2cc(OCc3cncc(C#N)c3)c(CN(C)Cc3cncs3)cc2Cl)cccc1-c1cccc(OCCCN2CC[C@@H](O)C2)c1C [Example 2534, (R)-5-((4-chloro-5-((3′-(3-(3-hydroxypyrrolidin-1-yl)propoxy)-2,2′-dimethyl-[1,1′-biphenyl]-3-yl)methoxy)-2-((methyl(thiazol-5-ylmethyl)amino)methyl)phenoxy)methyl)nicotinonitrile]
3 | 3 | CCN(Cc1nnn[nH]1)Cc1cc(Cl)c(OCc2cccc(-c3cccc(OCCCN4CC[C@@H](O)C4)c3C)c2C)cc1OCc1cncc(C#N)c1 [Example 1007, (R)-5-((2-((((1H-Tetrazol-5-yl)methyl)(ethyl)amino)methyl)-4-chloro-5-((3′-(3-(3-hydroxypyrrolidin-1-yl)propoxy)-2,2′-dimethyl-[1,1′-biphenyl]-3-yl)methoxy)phenoxy)methyl)nicotinonitrile]
4 | 2.9 | Cc1c(COc2cc(OCc3cncc(C#N)c3)c(CN3CCCC3c3nnn[nH]3)cc2Cl)cccc1-c1cccc(OCCCN2CC[C@@H](O)C2)c1C (stereo partly drawn) [Example 1015, 5-((2-((2-(1H-Tetrazol-5-yl)pyrrolidin-1-yl)methyl)-4-chloro-5-((3′-(3-((R)-3-hydroxy-pyrrolidin-1-yl)propoxy)-2,2′-dimethyl-[1,1′-biphenyl]-3-yl)methoxy)phenoxy)methyl)-nicotinonitrile]
5 | 2.3 | Cc1c(COc2cc(OCc3cncc(C#N)c3)c(CN3CCC(c4cc[nH]n4)C3)cc2Cl)cccc1-c1cccc(OCC2CCCN(C)C2)c1Cl (stereo not drawn) [Example 2608, 5-((2-((3-(1H-pyrazol-3-yl)pyrrolidin-1-yl)methyl)-4-chloro-5-((2′-chloro-2-methyl-3′-((1-methylpiperidin-3-yl)methoxy)-[1,1′-biphenyl]-3-yl)methoxy)phenoxy)methyl)nicotinonitrile]
6 | 3.8 | CCc1nc(CN(CCOC)Cc2cc(Cl)c(OCc3cccc(-c4cccc(OCCCN5CC[C@@H](O)C5)c4C)c3C)cc2OCc2cncc(C#N)c2)[nH]c1CC [Example 2571, (R)-5-((4-chloro-2-((((4,5-diethyl-1H-imidazol-2-yl)methyl)(2-methoxyethyl)amino)methyl)-5-((3′-(3-(3-hydroxypyrrolidin-1-yl)propoxy)-2,2′-dimethyl-[1,1′-biphenyl]-3-yl)methoxy)phenoxy)methyl)nicotinonitrile]
7 | 0.5 | CC(=O)NC1CCN(CCCOc2cccc(-c3cccc(COc4cc(OCc5cncc(C#N)c5)c(CN(C)Cc5nnn[nH]5)cc4Cl)c3C)c2C)CC1 [Example 1044, N-(1-(3-((3′-((4-((((1H-Tetrazol-5-yl)methyl)(methyl)amino)methyl)-2-chloro-5-((5-cyanopyridin-3-yl)methoxy)phenoxy)methyl)-2,2′-dimethyl-[1,1′-biphenyl]-3-yl)oxy)-propyl)piperidin-4-yl)acetamide]
8 | 1 | Cc1c(COc2cc(OCc3cncc(C#N)c3)c(CNCCc3ncn[nH]3)cc2Cl)cccc1-c1cccc(OCCCN2CC[C@@H](O)C2)c1C [Example 2519, (R)-5-((2-(((2-(1H-1,2,4-triazol-5-yl)ethyl)amino)methyl)-4-chloro-5-((3′-(3-(3-hydroxypyrrolidin-1-yl)propoxy)-2,2′-dimethyl-[1,1′-biphenyl]-3-yl)methoxy)phenoxy)methyl)nicotinonitrile]
9 | 9.6 | Cc1c(COc2cc(OCc3cncc(C#N)c3)c(CNCc3cn[nH]c3)cc2Cl)cccc1-c1cccc(OC2CCC(N3CCCC3)CC2)c1Cl (stereo not drawn) [Example 2052, 5-((2-((((1H-pyrazol-4-yl)methyl)amino)methyl)-4-chloro-5-((2′-chloro-2-methyl-3′-((4-(pyrrolidin-1-yl)cyclohexyl)oxy)-[1,1′-biphenyl]-3-yl)methoxy)phenoxy)methyl)nicotinonitrile]
10 | 0.2 | Cc1c(COc2cc(OCc3cncc(C#N)c3)c(CN(C)C(C)c3nnn[nH]3)cc2Cl)cccc1-c1cccc(OCCCNC[C@H](O)CO)c1C (stereo partly drawn) [Example 1030, 5-((2-(((1-(1H-Tetrazol-5-yl)ethyl)(methyl)amino)methyl)-4-chloro-5-((3′-(3-(((S)-2,3-dihydroxypropyl)amino)propoxy)-2,2′-dimethyl-[1,1′-biphenyl]-3-yl)methoxy)-phenoxy)methyl)nicotinonitrile]
11 | 4.2 | Cc1c(COc2cc(OCc3cncc(C#N)c3)c(CNCc3cc(C4CC4)on3)cc2Cl)cccc1-c1cccc(OCC2CCCN(C)C2)c1Cl (stereo not drawn) [Example 2607, 5-((4-chloro-5-((2′-chloro-2-methyl-3′-((1-methylpiperidin-3-yl)methoxy)-[1,1′-biphenyl]-3-yl)methoxy)-2-((((5-cyclopropylisoxazol-3-yl)methyl)amino)methyl)phenoxy)methyl)nicotinonitrile]
12 | 3.1 | CC(=O)NC1CCN(CCCOc2cccc(-c3cccc(COc4cc(OCc5cncc(C#N)c5)c(CNC(C)c5nnn[nH]5)cc4Cl)c3C)c2C)CC1 (stereo not drawn) [Example 1043, N-(1-(3-((3′-((4-(((1-(1H-Tetrazol-5-yl)ethyl)amino)methyl)-2-chloro-5-((5-cyanopyridin-3-yl)methoxy)phenoxy)methyl)-2,2′-dimethyl-[1,1′-biphenyl]-3-yl)oxy)propyl)piperidin-4-yl)acetamide]
13 | 0.2 | Cc1c(COc2cc(OCc3cncc(C#N)c3)c(CN(C)Cc3ccccn3)cc2Cl)cccc1-c1cccc(OCCCN2CC[C@@H](O)C2)c1C [Example 2028, (R)-5-((4-chloro-5-((3′-(3-(3-hydroxypyrrolidin-1-yl)propoxy)-2,2′-dimethyl-[1,1′-biphenyl]-3-yl)methoxy)-2-((methyl(pyridin-2-ylmethyl)amino)methyl)phenoxy)methyl)nicotinonitrile]
14 | 1.9 | Cc1c(COc2cc(OCc3cncc(C#N)c3)c(CNC(C(=O)O)c3cnn(C)c3)cc2Cl)cccc1-c1cccc(OCC2CCCN(C)C2)c1Cl (stereo not drawn) [Example 1028, 2-((5-Chloro-4-((2′-chloro-2-methyl-3′-((1-methylpiperidin-3-yl)methoxy)-[1,1′-biphenyl]-3-yl)methoxy)-2-((5-cyanopyridin-3-yl)methoxy)benzyl)amino)-2-(1-methyl-1H-pyrazol-4-yl)acetic acid]
15 | 4.7 | Cc1c(COc2cc(OCc3cncc(C#N)c3)c(CNCc3ncc4ccccn34)cc2Cl)cccc1-c1cccc(OCCCN2CC[C@@H](O)C2)c1C [Example 2565, (R)-5-((4-chloro-5-((3′-(3-(3-hydroxypyrrolidin-1-yl)propoxy)-2,2′-dimethyl-[1,1′-biphenyl]-3-yl)methoxy)-2-(((imidazo[1,5-a]pyridin-3-ylmethyl)amino)methyl)phenoxy)methyl)nicotinonitrile]
16 | 3.3 | Cc1ncsc1CCN(C)Cc1cc(Cl)c(OCc2cccc(-c3cccc(OCCCN4CC[C@@H](O)C4)c3C)c2C)cc1OCc1cncc(C#N)c1 [Example 2511, (R)-5-((4-chloro-5-((3′-(3-(3-hydroxypyrrolidin-1-yl)propoxy)-2,2′-dimethyl-[1,1′-biphenyl]-3-yl)methoxy)-2-((methyl(2-(4-methylthiazol-5-yl)ethyl)amino)methyl)phenoxy)methyl)nicotinonitrile]
17 | 16.9 | Cc1c(COc2cc(OCc3cncc(C#N)c3)c(CNCc3cccnn3)cc2Cl)cccc1-c1cccc(OCc2cncnc2)c1Cl [Example 2061, 5-((4-chloro-5-((2′-chloro-2-methyl-3′-(pyrimidin-5-ylmethoxy)-[1,1′-biphenyl]-3-yl)methoxy)-2-(((pyridazin-3-ylmethyl)amino)methyl)phenoxy)methyl)nicotinonitrile]
18 | 2.8 | Cc1cc(CNCc2cc(Cl)c(OCc3cccc(-c4cccc(OCC5CCCN(C)C5)c4Cl)c3C)cc2OCc2cncc(C#N)c2)no1 (stereo not drawn) [Example 2575, 5-((4-chloro-5-((2′-chloro-2-methyl-3′-((1-methylpiperidin-3-yl)methoxy)-[1,1′-biphenyl]-3-yl)methoxy)-2-((((5-methylisoxazol-3-yl)methyl)amino)methyl)phenoxy)methyl)nicotinonitrile]
19 | 0.8 | Cc1c(COc2cc(OCc3cncc(C#N)c3)c(CNCc3cccnc3)cc2Cl)cccc1-c1cccc(OCCCN2CC[C@@H](O)C2)c1C [Example 2018, (R)-5-((4-chloro-5-((3′-(3-(3-hydroxypyrrolidin-1-yl)propoxy)-2,2′-dimethyl-[1,1′-biphenyl]-3-yl)methoxy)-2-(((pyridin-3-ylmethyl)amino)methyl)phenoxy)methyl)nicotinonitrile]
20 | 73.3 | Cc1c(COc2cc(OCc3cncc(C#N)c3)c(CNCc3nc4ccccc4n3Cc3ccccc3)cc2Cl)cccc1-c1cccc(OCCCN2CC[C@@H](O)C2)c1C [Example 2557, (R)-5-((2-((((1-benzyl-1H-benzo[d]imidazol-2-yl)methyl)amino)methyl)-4-chloro-5-((3′-(3-(3-hydroxypyrrolidin-1-yl)propoxy)-2,2′-dimethyl-[1,1′-biphenyl]-3-yl)methoxy)phenoxy)methyl)nicotinonitrile]
21 | 0.7 | Cc1c(COc2cc(OCc3cncc(C#N)c3)c(CNCc3csc(N)n3)cc2Cl)cccc1-c1cccc(OCC2CCCN(C)C2)c1Cl (stereo not drawn) [Example 2586, 5-((2-((((2-aminothiazol-4-yl)methyl)amino)methyl)-4-chloro-5-((2′-chloro-2-methyl-3′-((1-methylpiperidin-3-yl)methoxy)-[1,1′-biphenyl]-3-yl)methoxy)phenoxy)methyl)nicotinonitrile]
